Read-outs that look alike come from different tables or passages of the source. Ends that are not written are not given here.
Columns and labels:
MC3T3-E1 cells = type: cell-based, mouse
Text: (§1) The assessment of cytotoxicity primarily relies on alterations in cell membrane permeability. To evaluate the cytotoxicity of AMPs, we employed the Cell Counting Kit‐8 (CCK‐8) assay, which is widely recognized as one of the most frequently used methods for assessing cytotoxicity. The CCK‐8 assay utilizes WST‐8 [2‐(2‐Methoxy‐4‐nitrophenyl)‐3‐(4‐nitrophenyl)‐5‐(2,4‐disulfophenyl)‐2H‐tetrazolium Sodium Salt] for rapid detection based on the principle that intracellular dehydrogenase‐mediated biological reduction of WST‐8 generates an orange formazan dye. This dye can dissolve in the medium, and its quantity is directly proportional to the number of viable cells. For the cytotoxicity test, 2 000 MC3T3‐E1 cells or CH3 cells were seeded into each well of 96‐well plates and cultured in DMEM medium containing 10% FBS and 1% penicillin‐streptomycin at 37 °C and 5% CO2overnight. Then the culture medium was removed, and the AMPs at the various concentrations in the media were added to each well. The cells were further incubated for 48 h, followed by the addition of […] of CCK‐8 and subsequent incubation for 1 h. The absorbance of the solution was measured at 450 nm by a microplate reader. The cell viability was calculated as follows (A represents absorbance): (11) %Cell viability=Asample−Ablank/Anegative−Ablank×100
The data were plotted as AMP concentration versus the percentage of living cells using GraphPad Prism 8.0.

B. subtilis BNCC109047 = type: cell-based; details: BNCC109047, 18 h
Method: (§2) The antimicrobial activity of the synthesized AMPs was evaluated against several strains, including E. coli BL21(DE3), S. aureus BNCC186335, B. subtilis BNCC109047, and drug‐resistant strains such as E coli XJ13000957, E. coli XJ13022488, E. coli XJ19025100, E. coli XJ22006301, and MRSA ATCC43300. All strains are stored at ‐80°C and, before testing, were transferred into fresh Mueller‐Hinton Medium and incubated for 24 h at 37°C. Fresh cultures were used for the antimicrobial assays. The MIC values were determined using the broth microdilution method according to the Clinical and Laboratory Standards Institute (CLSI) protocol. Initial bacterial inoculums (5× 10^5 colony forming units (CFU)/mL) in Mueller‐Hinton Broth were exposed to varying concentrations of the compounds (0.5‐512 µg/mL) and incubated for 18 h at 37°C. The experiments are conducted on 96‐well microtiter plates with a final volume of 100 µL. The MIC was defined as the lowest concentration of the compound that inhibits visible bacterial growth. Additionally, the MBC was evaluated. After determining the MIC, samples from the MIC well and two higher concentrations are plated on agar plates. The MBC was recorded as the lowest concentration at which no visible bacterial colonies were observed. All experiments were performed in triplicate, with positive controls (ensuring proper bacterial growth) and negative controls (ensuring sterility) included.

E. coli BL21(DE3) = type: cell-based; details: BL21, 18 h
Method: as §2

S. aureus BNCC186335 = type: cell-based; details: BNCC186335, 18 h
Method: as §2

[1] = test system: bone marrow mesenchymal stem cells CH3; type: cell-based
Text: as §1, with “viability=Asample−Ablank/Anegative−Ablank×100 […]” for “viability=Asample−Ablank/Anegative−Ablank×100”

human red blood cells = type: cell-based; details: 3 h
Method: Anticoagulant whole blood was diluted with PBS at a ratio of 1:1 and subsequently centrifuged at 1500×g for 10 minutes. The supernatant and white blood cell layer were discarded, while the red blood cells were washed three times with PBS until the supernatant became colorless and transparent. A 2% red blood cell suspension was then prepared using PBS. For the positive control, 0.2 mL of 1% Triton X‐100 was mixed with 0.8 mL of the red blood cell suspension. The negative control consisted of 0.2 mL of PBS combined with 0.8 mL of the red blood cell suspension. In the experimental group, 0.2 mL of MPOP‐03 (prepared at gradient concentrations) was added to 0.8 mL of the red blood cell suspension. Three replicates were prepared for each group. All samples were incubated at 37°C in a constant temperature water bath for 3 hours. Following incubation, the samples were centrifuged at 1500×g for 5 minutes, and the supernatants were carefully aspirated and transferred to new centrifuge tubes. The optical density values of the samples were measured at a wavelength of 524 nm using a microplate reader. The hemolysis ratio was calculated as follows (A represents absorbance): (12) %Hemolysis ratio=Asample−Anegative/Apositive−Anegative×100

E. coli XJ19025100 = type: cell-based; details: XJ19025100, 18 h
Method: as §2

Sequence	CC50 (MC3T3-E1) (MC3T3-E1 cells) [µg/mL]	MIC B. subtilis (B. subtilis BNCC109047) [µg/mL]	MIC E. coli (E. coli BL21(DE3)) [µg/mL]	MIC S. aureus (S. aureus BNCC186335) [µg/mL]	CC50 for CH3 [1] [µg/mL]	CC50 for CH3 ([1]; 48 h) [µg/mL]	CC50 for MC3T3-E1 (MC3T3-E1 cells; 48 h) [µg/mL]	HC50 (concentration required to induce 50% hemolysis of red blood cells) (human red blood cells) [µg/mL]	MIC against E. coli XJ19025100 (E. coli XJ19025100) [µg/mL]
GLFDVIKKIAEMVSNGYHTVKKKF [MPOP-08]	24	4	32	4	–	–	–	–	–
IGSFKHVFKRITSMAKAIR [MPOP-10]	–	32	256	32	–	–	–	–	–
GIGKFLHSFTKFFSKIMNAIR [MPOP-07]	35	4	–	4	–	–	–	–	–
KLFRVVKKMFHSVFSSIHKYFR [MPOP-06]	20	8	32	8	–	–	–	–	–
VMKRIGTILSGLHSLLSKIF [MPOP-05]	28	4	32	4	–	–	–	–	–
IKGIIKTIKKMASHFLHSAS [MPOP-09]	118	8	16	8	–	–	–	–	–
DPFGIMSKLQQFIRKFYQSLKHLKT [MPOP-01]	24	8	128	4	–	–	–	–	–
LHQIKSVIKTAMNVLSGLFSAIKKK [MPOP-02]	15	4	32	4	–	–	–	–	–
MSKFKHFFNAVKSIFRGLTK [MPOP-03]	85	2	–	–	32.47	34.27	84.96	256	≤ 8
GGGGMLKYFKTAIHTIKKIGQKIVN [MPOP-04]	22	4	16	4	–	–	–	–	–

Reference: paper PMC12520537, “A Multi‐Property Optimizing Generative Adversarial Network for de novo Antimicrobial Peptide Design” (Advanced Science, 2025)
